Reference: patent US20030092083A1, “Cage antigen” (priority 2001, published 2003)
“Also recorded” adds a separate entry of the source.

Legend:
[1] = test system: CAGE expression in PANC-1 and ACHN cancer cell lines; assay: RT-PCR of CAGE expression after treatment of cancer cell lines that do not express CAGE; assay type: cell-based; conditions: various concentrations for 4 days or 2 μM for various time periods
Excerpt: Many of the known C/T antigen genes are methylated in their promoter regions. […] It is understood that it would be within one of ordinary skill in the art to determine the methylation status of CAGE gene by cloning the promoter sequence of CAGE using any available method such as, but not limited to, genomic inverse PCR.
Next, we investigated whether CAGE gene was methylated. […] For RT-PCR, 5′-[…]-3′ (sense, SEQ ID NO: 11) and 5′-[…]-3′ (antisense, SEQ ID NO: 7) were used. While the mechanism of transcriptional silencing of CAGE in some cancer cell lines may not be clear, it appears that testis-specific expression of CAGE is related at least in part to its demethylation level. In addition, the role of transcription factors in the expression of CAGE gene cannot be ruled out. The absence of transcription factors in other somatic tissues may be responsible for the absence of CAGE expression in these tissues.

CD8+ T cells = assay: IFN-γ ELISPOT assay for measuring CD8+ T cell stimulation; assay type: cell-based, human; conditions: 10 μg/ml peptide; CD8+ T cells from PBL of healthy HLA-A2 donors as effector, T2 cells as target, 20 hours
Protocol: With these peptides, we stimulated CD8+ T cells isolated from PBL of healthy donors. The activated CD8+ T cells were incubated with target cells ([…]). The effect of CD8+ T cells on target cells was measured by ELISPOT assay, which detects the amount of IFN-γ released due to activation of CD8+ T cells.
For isolation of PBL, Ficoll-Paque® PLUS (Amersham Pharmacia Biotech) was used. Isolation of PBLs was carried out according to the instruction manual provided by the manufacturer (Amersham Pharmacia Biotech). Briefly, 30 ml of whole blood was mixed with 20 ml of Ficoll-Paque® and centrifuged at 800 g for 20 min. The pellet was transferred to a new tube. 20 ml of PBS buffer was added to the pellet, and centrifuged at 800 g for 10 min. After centrifugation, 10 ml of PBS buffer was added to the pellet. 5 ml of Ficoll-Paque® was added and the contents centrifuged at 800 g for 20 min. 10 ml PBS was added to the pellet for washing, and the contents centrifuged at 800 g for 10 min. Isolated PBLs from healthy donors (HLA-A2 type) were dissolved in RPMI 1640 containing 10% human serum and antibiotics.
For isolation of CD8+ T cells from PBL, CD8 negative isolation kit (DYNAL) was used and isolation was carried out according to the instruction manual provided by the manufacturer. […]

Nc1ncn([C@H]2C[C@H](O)[C@@H](CO)O2)c(=O)n1 [5-aza-2′-deoxycytidine]
induction of CAGE expression (RT-PCR) [1]: induced CAGE expression in both dose and time-dependent manner; also recorded: induced expression of CAGE in dosage and time-dependent manner

KMAGELIKI [peptide of CAGE protein, start position 576]
induction of CD8+ T cells (IFN-γ release, ELISPOT) (CD8+ T cells): showed induction of CD8+ T cells

YLMPGFIHL [peptide of CAGE protein, start position 276]
induction of CD8+ T cells (IFN-γ release, ELISPOT) (CD8+ T cells): showed induction of CD8+ T cells
